Measurements taken from US6919349B2, “Spiro compounds and adhesion molecule inhibitors containing the same as the active ingredient” (Toray Industries, Inc., priority 2000, dated 2005).

These compounds were tested against VLA-4-IgG chimera protein (Homo sapiens, UniProt P05556+P13612) (assay: Inhibitory effect against binding between CS-1 peptide and VLA-4-IgG chimera protein). Conditions: binding of VLA-4-IgG chimera protein to immobilized CS-1 peptide conjugate; compound pre-reacted with chimera protein 20 min; 30° C. 3 hours; absorbance 490 nm.
VLA-4-IgG chimera protein, sequence (P13612 with tags, fused parts or gaps limits assumed): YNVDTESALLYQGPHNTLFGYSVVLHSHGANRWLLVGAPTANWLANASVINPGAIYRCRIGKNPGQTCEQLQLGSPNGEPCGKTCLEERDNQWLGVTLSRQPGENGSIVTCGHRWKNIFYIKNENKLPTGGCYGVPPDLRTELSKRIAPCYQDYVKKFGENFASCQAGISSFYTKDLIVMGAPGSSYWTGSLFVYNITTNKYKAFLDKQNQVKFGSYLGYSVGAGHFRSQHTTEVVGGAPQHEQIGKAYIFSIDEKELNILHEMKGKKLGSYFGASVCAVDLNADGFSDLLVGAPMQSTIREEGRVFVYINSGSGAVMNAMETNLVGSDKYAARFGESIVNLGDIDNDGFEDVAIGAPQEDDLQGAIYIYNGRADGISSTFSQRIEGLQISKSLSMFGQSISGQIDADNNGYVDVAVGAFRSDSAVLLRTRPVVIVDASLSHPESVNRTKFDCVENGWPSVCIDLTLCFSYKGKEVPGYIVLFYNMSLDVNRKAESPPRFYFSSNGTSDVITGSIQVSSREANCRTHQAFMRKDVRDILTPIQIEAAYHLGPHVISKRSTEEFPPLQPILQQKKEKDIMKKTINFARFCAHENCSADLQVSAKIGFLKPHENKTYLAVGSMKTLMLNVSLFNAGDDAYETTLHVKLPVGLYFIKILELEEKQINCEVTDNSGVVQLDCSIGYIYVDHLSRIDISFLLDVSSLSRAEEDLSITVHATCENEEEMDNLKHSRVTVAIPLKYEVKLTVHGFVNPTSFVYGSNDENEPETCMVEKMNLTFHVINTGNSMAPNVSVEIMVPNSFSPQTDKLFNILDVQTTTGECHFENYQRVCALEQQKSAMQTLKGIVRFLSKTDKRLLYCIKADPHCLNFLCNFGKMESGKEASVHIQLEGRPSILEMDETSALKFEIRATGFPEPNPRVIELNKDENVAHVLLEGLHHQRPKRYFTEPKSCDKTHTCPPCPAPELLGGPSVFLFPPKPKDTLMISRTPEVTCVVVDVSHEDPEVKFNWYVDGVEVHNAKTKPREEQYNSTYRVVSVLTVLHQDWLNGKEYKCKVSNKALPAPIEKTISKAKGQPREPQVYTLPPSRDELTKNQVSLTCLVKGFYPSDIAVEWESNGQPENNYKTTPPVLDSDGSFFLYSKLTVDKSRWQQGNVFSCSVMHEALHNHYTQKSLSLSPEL
VLA-4-IgG chimera protein, sequence (P05556 with tags, fused parts or gaps limits assumed): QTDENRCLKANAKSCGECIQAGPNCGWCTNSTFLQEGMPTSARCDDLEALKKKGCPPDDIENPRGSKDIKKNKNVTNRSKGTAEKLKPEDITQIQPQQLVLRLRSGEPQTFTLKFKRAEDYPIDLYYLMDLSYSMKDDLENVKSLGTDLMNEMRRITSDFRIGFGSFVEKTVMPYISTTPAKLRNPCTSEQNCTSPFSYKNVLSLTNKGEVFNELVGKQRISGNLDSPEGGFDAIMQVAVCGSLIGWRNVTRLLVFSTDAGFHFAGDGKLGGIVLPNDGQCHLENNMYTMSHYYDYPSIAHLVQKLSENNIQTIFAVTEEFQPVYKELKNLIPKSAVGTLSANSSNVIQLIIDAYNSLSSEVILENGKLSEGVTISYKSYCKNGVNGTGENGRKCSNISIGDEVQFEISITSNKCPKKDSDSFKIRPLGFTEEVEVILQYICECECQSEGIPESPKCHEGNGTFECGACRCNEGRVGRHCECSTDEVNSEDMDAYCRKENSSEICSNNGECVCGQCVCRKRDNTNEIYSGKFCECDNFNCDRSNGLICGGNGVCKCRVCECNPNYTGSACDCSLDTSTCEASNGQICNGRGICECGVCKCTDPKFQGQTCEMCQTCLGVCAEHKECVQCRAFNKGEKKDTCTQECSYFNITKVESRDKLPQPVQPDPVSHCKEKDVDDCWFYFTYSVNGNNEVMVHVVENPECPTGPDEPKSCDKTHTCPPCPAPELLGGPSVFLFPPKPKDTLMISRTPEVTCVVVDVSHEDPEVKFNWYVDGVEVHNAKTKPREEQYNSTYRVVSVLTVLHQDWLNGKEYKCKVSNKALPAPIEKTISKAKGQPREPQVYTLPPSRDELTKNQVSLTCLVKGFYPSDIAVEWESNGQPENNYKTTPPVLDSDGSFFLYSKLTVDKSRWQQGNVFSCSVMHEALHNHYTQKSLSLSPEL
Method: The inhibitory activity of the compound according to the present invention against the adhesion of VLA-4 may be determined by using an adhesion-measuring system in which the adhesion between VLA-4-expressing cells such as Ramos cells or Jurkat cells and fibronectin or fibronectin fragment such as a peptide containing CS-1 sequence (Gly Pro Glu Ile Leu Asp Val Pro Ser Thr) (hereinafter referred to as “CS-1 peptide”), immobilized on an immunoplate is measured. Alternatively, a binding-measuring system in which the adhesion between VLA-4 protein and fibronectin or fibronectin fragment such as CS-1 peptide, immobilized on an immunoplate may be used. In the present invention, it is preferred to evaluate the inhibitory activity of a compound using a binding-measuring system in which adhesion between a chimera protein of VLA-4-immunoglobulin (VLA-4-IgG chimera protein) and CS-1 peptide (Japanese Patent Application No. H9-234544), but the method is not restricted thereto. The “VLA-4-IgG chimera protein” herein means the heterodimer complex of the chimera protein between α4 of VLA-4 and immunoglobulin (hereinafter referred to as “VLAα4-IgG chimera protein”) and a chimera protein between β1 of VLA-4 and immunoglobulin (hereinafter referred to as “VLAβ1-IgG chimera protein”). As the immunoglobulin, although heavy chain or light chain of IgG, IgM or the like may be used, IgG1 heavy chain is used in the present invention. When testing the inhibitory effect of a compound, it is preferred to mix VLA-4-IgG chimera protein and the test compound previously.
In accordance with the teaching of a report (Humphrise, M. J. et al. J.Bio.Chem.,262,6886-6892(1987)), a conjugate between a peptide (Gys Leu His Gly Pro Glu Glu Ile Leu Asp Val Pro Ser Thr) containing CS-1 sequence and rabbit IgG (Sigma) was prepared. This was diluted with phosphate buffer (hereinafter referred to as “PBS(−)” for short), and the obtained solution was placed in the wells of a 96-well immunoplate (NUNC) in an amount of 100 μl/well, followed by leaving to stand the immunoplate at 4° C. for 16 hours to immobilize the conjugate.
The wells were then washed twice with PBS(−), and 1% BSA solution in PBS, which BSA was heated at 80° C. for 10 minutes, was placed in each well in an amount of 300 μl/well. The immunoplate was left to stand at 4° C. for 3 hours, and then the solution in each well was removed by suction.
Each compound and VLA-4-IgG chimera protein (100 μl) were preliminarily reacted at room temperature for 20 minutes, and then the resulting mixture was allowed to react with the CS-1peptide in each well at 30° C. for 3 hours. Thereafter, non-bound VLA-4-IgG chimera protein was removed by suction, and each well was washed twice with 0.1% BSA-containing TBS buffer (150 mM NaCl, 25 mM Tris-HCl, 1 mM MnCl2, PH7.4). To the bound VLA-4-IgG chimera protein, biotin-labelled anti-human IgG antibody (Vector) as a primary antibody was added, and then avidin-labelled horse radish peroxidase (Sigma) as a secondary antibody was added, thereby allowing the reactions. Then o-phenylenediamine as a substrate was added to color the reaction solution, and the absorbance at 490 nm was measured. From this absorbance, the binding inhibitory activity of each compound was determined.
Compound `O=C(N[C@@H](CNC(=O)N1CCC2(CC1)C(=O)NCN2c1ccccc1)C(=O)O)c1c(Cl)cccc1Cl` [Compound 3, 3-((2,4,8-triaza-1-oxo-4-phenylspiro[4.5]dec-8-yl)carbonylamino)-2-((2,6-dichlorophenyl)carbonylamino)propanoic acid] has an IC50 of 6.1 nM.
`COc1cccc(OC)c1C(=O)N[C@@H](CNC(=O)N1CCC2(CC1)C(=O)N(Cc1ccccc1)CN2c1ccccc1)C(=O)O` [Compound 7, 2-((2,6-dimethoxyphenyl)carbonylamino)-3-((2,4,8-triaza-1-oxo-4-phenyl-2-benzylspiro[4.5]dec-8-yl)carbonylamino)propanoic acid] was tested, and the IC50 was 18 nM.
Compound `Cc1cccc(C)c1C(=O)N[C@@H](CNC(=O)N1CCC2(CC1)C(=O)N(Cc1ccccc1)CN2c1ccccc1)C(=O)O` [Compound 13, 2-((2,6-dimethylphenyl)carbonylamino)-3-((2,4,8-triaza-1-oxo-4-phenyl-2-benzylspiro[4.5]dec-8-yl)carbonylamino)propanoic acid] has an IC50 of 2.9 nM.
Work on `CC(C)C(=O)NC1(c2ccccc2)CCN(C(=O)N[C@@H](CNC(=O)N2CCC3(CC2)C(=O)N(Cc2ccccc2)CN3c2ccccc2)C(=O)O)CC1` [Compound 27] yielded an IC50 of 2.1 nM.
`O=C(O)[C@H](CNC(=O)N1CCC2(CC1)C(=O)N(Cc1ccccc1)CN2c1ccccc1)NC(=O)N1CCC(n2c(=O)[nH]c3ccccc32)CC1` [Compound 31, 2-((4-(2-oxo(3-hydrobenzimidazolyl))piperidyl)carbonylamino)-3-((2,4,8-triaza-1-oxo-4-phenyl-2-benzylspiro[4.5]dec-8-yl)carbonylamino)propanoic acid] was tested, and the IC50 was 0.98 nM.
